This note sets out measurements from patent US20240246940A1, “HETEROARYL DERIVATIVE COMPOUND AND USE THEREOF” (VORONOI INC., priority 2021, published 2024).

Holding throughout (format): cell-based
For assay [1], the system named is SK-BR-3 cells (HER2 overexpressing cell line). Kind of assay: SK-BR-3 cell proliferation inhibitory activity (CellTiter-Glo, 120 hours). Particulars: Homo sapiens. In a few lines:
(§1)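 GI50 values derive from luminescence-based live-cell counts, expressed relative to control growth. Final compound ranges were 0.2 nM–10 μM for the two breast lines, […]–5 μM in N-87 and 0.8 nM–45 μM in HaCaT. Tests were run three times.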
On the technique in general: Cellular ATP, detected with luciferase, serves as a proxy for viable cell number.

Assay [2] deals with BT-474 cells (HER2 overexpressing cell line). Kind of assay: BT-474 cell proliferation inhibitory activity (CellTiter-Glo, 120 hours). Particulars: Homo sapiens. Put shortly:
as §1

Assay [3] has as its system N-87 cells (HER2 overexpressing cell line). Description: N-87 cell proliferation inhibitory activity (CellTiter-Glo, 72 hours). The procedure:
To evaluate the cell proliferation inhibitory activity of the compound according to the present invention on HER2 and EGFR kinases, the following method was performed using HER2 overexpressing cell lines (SK-BR-3, BT-474, and N-87) and EGFR expressing cell line (HaCaT).
McCOY'S 5A supplemented with 10% FBS was used for SK-BR-3 cells, RPMI-1640 medium supplemented with 20% FBS was used for BT-474 cancer cells, and RPMI-1640 medium supplemented with 10% FBS was used for N-87 cancer cells. DMEM supplemented with 10% FBS was used for HaCaT cells.
For SK-BR-3 cells, 5000 cells were aliquoted into each well of a white clear bottom 96 well plate (Corning) 48 hours before treatment with the compounds of Examples. For BT-474 cells, 5000 cells were aliquoted into each well of a white clear bottom 96 well plate (Corning) 48 hours before treatment with the compounds of Examples. For N-87 cells, 5000 cells were aliquoted into each well of a white clear bottom 96 well plate (Corning) 24 hours before treatment with the compounds of Examples. For HaCaT cells, 3000 cells were aliquoted into each well of a white clear bottom 96 well plate (Corning) 24 hours before treatment with the compounds of Examples. For SK-BR-3 cells and BT-474 cells, the compounds of Examples were diluted in dimethyl sulfoxide (three-fold dilution, a total of 11 concentrations) and injected each in an amount of 1 μl to a final concentration of 0.2 nM to 10 μM. For N-87 cells, the compounds of Examples were diluted in dimethyl sulfoxide (five-fold dilution, a total of 11 concentrations) and injected each in an amount of 0.5 μl to a final concentration of […] to 5 μM. For HaCaT cells, the compounds of Examples were diluted in dimethyl sulfoxide (three-fold dilution, a total of 11 concentrations) and injected each in an amount of 0.5 μl to a final concentration of 0.8 nM to 45 μM. For the measurement of living cells, the cells were stored at room temperature for 10 minutes using CellTiter-Glo cell viability reagent (Promega) after a certain period of time (SK-BR-3: 120 hours, BT-474: 120 hours, N-87: 72 hours, and HaCaT: 72 hours) post treatment with the compounds of Examples, and the luminescence intensity thereof was measured using a reader (SynergyNeo, Biotek). Each test was repeated three times.
The result values were calculated as a cell growth rate (%) compared to those of the control group. A graph was created using the GraphPad Prism version 5.0 program, and GI50 values were calculated.

Assay [4] deals with HaCaT cells (EGFR expressing cell line). Kind of assay: HaCaT cell proliferation inhibitory activity (CellTiter-Glo, 72 hours). The note with it: Homo sapiens. In a few lines: as §1

SMILES strings stand for the structures. Some results are limits rather than exact numbers.

As to `C=CC(=O)N1CCC(Oc2cc3c(Nc4cc(-c5ccco5)c(F)cc4OC)ncnc3cc2OC)C(F)C1` (centres unmarked) [Example 140, 1-(3-fluoro-4-((4-((4-fluoro-5-(furan-2-yl)-2-methoxyphenyl)amino)-7-methoxy-quinazolin-6-yl)oxy)piperidin-1-yl)prop-2-en-1-one], the 50% growth inhibitory concentration (GI50) in assay [1], in assay [2], in assay [3] and in assay [4] was no more than 0.15 µM each time.

As to `C=CC(=O)N1CCC(Nc2cc3c(Nc4cc(-c5ccco5)ccc4OC)ncnc3cc2OC2CCOC2)CC1` (centres unmarked) [Example 270, 1-(4-((4-((5-(furan-2-yl)-2-methoxyphenyl)amino)-7-((tetrahydrofuran-3-yl)oxy)quinazolin-6-yl)amino)piperidin-1-yl)prop-2-en-1-one], the GI50 in assay [1], in assay [2], in assay [3] and in assay [4] was no more than 0.15 µM in each case.

As to `C=CC(=O)N1CCC(Oc2cc3c(Nc4cc(-c5ccsc5)ccc4OC)ncnc3cc2OC)CC1` [Example 79, 1-(4-((7-methoxy-4-((2-methoxy-5-(thiophen-3-yl)phenyl)amino)quinazolin-6-yl)oxy)piperidin-1-yl)prop-2-en-1-one], the GI50 in assay [1], in assay [2], in assay [3] and in assay [4] was no more than 0.15 µM throughout.

With `C=CC(=O)N1CCC(Nc2cc3c(Nc4cc(-c5ccco5)ccc4OC)ncnc3cc2OC)CC1` [Example 298, 1-(4-((4-((5-(furan-2-yl)-2-methoxyphenyl)amino)-7-methoxyquinazolin-6-yl)amino)piperidin-1-yl)prop-2-en-1-one], the GI50 in assay [1], in assay [2], in assay [3] and in assay [4] was no more than 0.15 µM throughout.

For `C=CC(=O)N1CCC(Oc2cc3c(Nc4cc(-c5ccc(F)cc5F)ccc4OC4CC4)ncnc3cc2OC)CC1` [Example 260, 1-(4-((4-((4-cyclopropoxy-2′,4′-difluoro-[1,1′-biphenyl]-3-yl)amino)-7-methoxyquinazolin-6-yl)oxy)piperidin-1-yl)prop-2-en-1-one], the GI50 in assay [1], in assay [2], in assay [3] and in assay [4] was no more than 0.15 µM each time.

Take `C=CC(=O)N1CCC(Oc2cc3c(Nc4cc(-c5cccc(N)c5F)ccc4OC)ncnc3cc2OC)CC1` [Example 163, 1-(4-((4-((3′-amino-2′-fluoro-4-methoxy-[1,1′-biphenyl]-3-yl)amino)-7-methoxy-quinazolin-6-yl)oxy)piperidin-1-yl)prop-2-en-1-one]: the GI50 was no more than 0.15 µM in assay [1], 0.15 to 1 µM in assay [2], no more than 0.15 µM in assay [3] and 0.15 to 1 µM in assay [4].

`C=CC(=O)N1CC[C@H](Oc2cc3c(Nc4cc(-c5ccco5)ccc4OC)ncnc3cc2OC)[C@H](F)C1` (relative stereo) [Example 181, 1-(cis-3-fluoro-4-((4-((5-(furan-2-yl)-2-methoxyphenyl)amino)-7-methoxy-quinazolin-6-yl)oxy)piperidin-1-yl)prop-2-en-1-one]: the GI50 in assay [1], in assay [2], in assay [3] and in assay [4] was no more than 0.15 µM throughout.

On to `C=CC(=O)N1CCC(Nc2cc3c(Nc4cc(-c5ccc(F)cc5F)ccc4OC)ncnc3cc2OC)CC1` [Example 299, 1-(4-((4-((2′,4′-difluoro-4-methoxy-[1,1′-biphenyl]-3-yl)amino)-7-methoxyquinazolin-6-yl)amino)piperidin-1-yl)prop-2-en-1-one], for which the 50% growth inhibitory concentration (GI50) in assay [1], in assay [2], in assay [3] and in assay [4] was no more than 0.15 µM throughout.

With `C=CC(=O)N1CCC(Oc2cc3c(Nc4cc(-c5ccc(F)c(N(C)C)c5)ccc4OC)ncnc3cc2OC)CC1` [Example 229, 1-(4-((4-((3′-(dimethylamino)-4′-fluoro-4-methoxy-[1,1′-biphenyl]-3-yl)amino)-7-methoxy-quinazolin-6-yl)oxy)piperidin-1-yl)prop-2-en-1-one], the GI50 in assay [2] was no more than 0.15 µM; in assay [3] it was no more than 0.15 µM; in assay [4], 0.15 to 1 µM.

For `C=CC(=O)N1CC[C@@H](Oc2cc3c(Nc4cc(-c5ccc(F)cc5F)ccc4OC)ncnc3cc2OC)[C@@H](F)C1` [Example 189, 1-((3S,4R)-4-((4-((2′,4′-difluoro-4-methoxy-[1,1′-biphenyl]-3-yl)amino)-7-methoxy-quinazolin-6-yl)oxy)-3-fluoropiperidin-1-yl)prop-2-en-1-one], the GI50 in assay [2], in assay [3] and in assay [4] was no more than 0.15 µM in each case.

With `C=CC(=O)N1CCC(Oc2cc3c(Nc4cc(-c5cccc(C=C)c5)ccc4OC)ncnc3cc2OC)CC1` [Example 215, 1-(4-((7-methoxy-4-((4-methoxy-3′-vinyl-[1,1′-biphenyl]-3-yl)amino)quinazolin-6-yl)oxy)piperidin-1-yl)prop-2-en-1-one], the GI50 in assay [2] is no more than 0.15 µM; in assay [3] it was no more than 0.15 µM; in assay [4] it was 0.15 to 1 µM.

With `C=CC(=O)N1CCC(Oc2cc3c(Nc4cc(-c5ccc(F)c(N6CCC6)c5)ccc4OC)ncnc3cc2OC)CC1` [Example 159, 1-(4-((4-((3′-(azetidin-1-yl)-4′-fluoro-4-methoxy-[1,1′-biphenyl]-3-yl)amino)-7-methoxy-quinazolin-6-yl)oxy)piperidin-1-yl)prop-2-en-1-one], the concentration for 50% growth inhibition (GI50) is no more than 0.15 µM in assay [2], no more than 0.15 µM in assay [3] and 0.15 to 1 µM in assay [4].

Turning to `C=CC(=O)N1CCC(Oc2cc3c(Nc4cc(-c5ccc(F)c(N6CC(F)(F)C6)c5)ccc4OC)ncnc3cc2OC)CC1` [Example 129, 1-(4-((4-((3′-(3,3-difluoroazetidin-1-yl)-4′-fluoro-4-methoxy-[1,1′-biphenyl]-3-yl)amino)-7-methoxy-quinazolin-6-yl)oxy)piperidin-1-yl)prop-2-en-1-one], the GI50 in assay [2] was no more than 0.15 µM; in assay [3], no more than 0.15 µM; in assay [4], 0.15 to 1 µM.

For `C=CC(=O)N1CCC(Nc2cc3c(Nc4cc(-c5ccc(F)cc5F)ccc4OC)ncnc3cc2OCC)CC1` [Example 301, 1-(4-((4-((2′,4′-difluoro-4-methoxy-[1,1′-biphenyl]-3-yl)amino)-7-ethoxyquinazolin-6-yl)amino)piperidin-1-yl)prop-2-en-1-one], the GI50 in assay [2], in assay [3] and in assay [4] was no more than 0.15 µM in each case.

For the compound `C=CC(=O)N1CCC(Oc2cc3c(Nc4cc(-c5scc6c5OCCO6)ccc4OC)ncnc3cc2OC)CC1` [Example 176, 1-(4-((4-((5-(2,3-dihydrothieno [3,4-b][1,4]dioxin-5-yl)-2-methoxyphenyl)amino)-7-methoxy-quinazolin-6-yl)oxy)piperidin-1-yl)prop-2-en-1-one], the GI50 in assay [2], in assay [3] and in assay [4] was no more than 0.15 µM in each case.

Regarding `C=CC(=O)N1CCC(Oc2cc3c(Nc4cc(-c5c(F)cc(F)cc5F)ccc4OC)ncnc3cc2OC)CC1` [Example 190, 1-(4-((7-methoxy-4-((2′,4′,6′-trifluoro-4-methoxy-[1,1′-biphenyl]-3-yl)amino)quinazolin-6-yl)oxy)piperidin-1-yl)prop-2-en-1-one], the GI50 in assay [2], in assay [3] and in assay [4] was no more than 0.15 µM each time.

As a reminder, the GI50 is the concentration at which growth is held to half of that of the control.
